{"source": "patent US20150352075A1", "about": "“Treatment of Alzheimer's and Cognitive Impairment With Andrographolides” (INNOBIOSCIENCE, LLC, priority 2013, published 2015)", "key": {"[1]": {"test_system": "APPswe/PS-1 double transgenic mice", "assay": "Thioflavine-S staining of amyloid plaques in brain of treated mice", "format": "in vivo"}, "[2]": {"test_system": "APPswe/PS-1 double transgenic mice", "assay": "Classical Morris Water Maze test", "format": "in vivo", "settings": "12 month-old APPswe/PS-1 mice, 2.0 mg/kg IP three times per week, four weeks, vs Tg control"}, "[3]": {"test_system": "GSK-3β", "assay": "Immunoblot of GSK-3β phosphorylation state and β-catenin in Wt hippocampal slices", "format": "cell-based, mice", "procedure": "The hippocampus and cortex of treated or control transgenic mice were dissected on ice and immediately processed has detailed previously (Toledo & Inestrosa 2010). Briefly, hippocampal and cortical tissues were homogenized in RIPA buffer (10 mM Tris-Cl, pH 7.4, EDTA 5 mM, 1% NP-40, 1% sodium deoxycholate, and 1% SDS) supplemented with a protease inhibitor mixture and phosphatase inhibitors (25 mMNaF, 100 mM Na3VO4 and 30 μM Na4P2O7) using a Potter homogenizator and then passed sequentially through different caliber syringes. Protein samples were centrifuged at 14000 rpm at 4° C. twice for 15 min Protein concentrations were determined using the BCA Protein Assay Kit (Pierce). Samples were resolved by SDS-PAGE followed by immunoblotting on PVDF membranes. Western blot assays were carried out as previously described (Inestrosa et al 2013; Toledo & Inestrosa 2010).\nHippocampal slices were prepared according to standard procedures previously described (Cerpa et al 2010; VarelaNallar et al 2010). Briefly, transverse slices (350 μm) from the dorsal hippocampus were cut under cold artificial cerebrospinal fluid (ACSF, in mM: 124 NaCl, […], 10 D-glucose, 2.69 KCl, 1.25 KH2PO4 2.5 CaCl2, 1.3 MgSO4, y 2.60 NaHPO4) using a V ibratome (Leica VT 1000s, Germany) and incubated in ACSF for 1 h at room temperature. In all experiments, 10 μM picrotoxin (PTX) was added to suppress inhibitory GABAA transmission (Cuitino et al 2010). Slices were transferred to an experimental chamber (2 ml), superfused (3 ml/min, at 20-22° C.) with gassed ACSF and visualized by trans-illumination with a binocular microscope (MSZ-10, Nikon, Melville, N.Y.). […] The paired pulse facilitation index was calculated by ((R2−R1)/R1), where R1 and R2 were the peak amplitudes of the first and second fEPSP respectively. […] Evoked postsynaptic responses were analyzed off-line, using an analysis software (pClampfit, Molecular Devices), which allowed visual detection of events, computing only those events that exceeded and arbitrary threshold."}, "[4]": {"test_system": "dentate gyrus of wild-type mice", "assay": "Adult hippocampal neurogenesis (Ki67, DCX immunofluorescence)", "format": "in vivo", "procedure": "Animals. Two-month-old C57BC6 wild-type mice were treated and handled according to National Institutes of Health guidelines (NIH, […], Md.). The treatments were performed by intraperitoneal (ip) injection of 2.0 mg/kg ANDRO and wild-type control animals were injected only with saline solution as vehicle.\nMice were anesthetized (100 μg ketamine+10 μg xylazine in […] saline/g), and then transcardially perfused with saline, followed by 4% paraformaldehyde (PFA) in 0.1M PBS. The brains were removed and incubated in PBS-4% PFA for 24 h at room temperature, dehydrated in 30% sucrose and kept at 4° C. until analysis.\nAfter dehydration, each mouse brain was sectioned on a cryostate in 12 sets of serial coronal sections of […] thickness (Leica Microsystems, Wetzlar, Germany) and collected in ice-cold-PBS in multiwell dishes.Each set contained 5-7 sections covering the entire length of the hippocampus.\nSections were washed with PBS 3 times for 5 min and then incubated in blocking solution (3% donkey serum, 3% BSA, 0.5% Triton X-100 in PBS) for 4 h. Then, tissues were incubated overnight with primary antibodies at 4° C. Primary antibodies used were: rabbit anti-Ki67 (Abcam), rabbit anti-DCX (Cell Signaling Technology Inc., Beverly, Mass., USA), monoclonal anti-NeuN (Millipore, Billerica, Mass., USA). After washing 3 times with 0.5% Triton X-100 PBS, sections were incubated with Dy Light (Abcam) conjugated secondary antibodies for 2 h at room temperature. […] For quantification, Ki67 positive cells were countedusing a fluorescence microscope (Olympus BX51, Tokyo, Japan). Cells were counted in all sections of one set (see tissue sectioning). Total cells counted in one set were multiplied by the total number of sets to obtain an estimation of the total number of Ki67+ cells in the complete hippocampus. For quantification of the % area covered by DCX, double labeling DCX/NeuN was carried. […] Images shown were analyzed by confocal laser microscopy (Olympus FV 1000) and z-projections were generated with ImageJ software."}, "[5]": {"settings": "young APPswe/PS-1 mice, vs controls"}, "[6]": {"settings": "Wt hippocampal slices, 10 μM ANDRO for 1 hr (FIG. 5)"}, "[7]": {"settings": "2-month-old mice, 2 mg/kg i.p. 3 times per week for 4 weeks"}}}
{"smiles": "C=C1CC[C@@H]2C(C)(CO)C(O)CC[C@@]2(C)C1C/C=C1/C(=O)OCC1O", "note": "(stereo in doubt) [ANDRO, 3-(2-(Decahydro-6-hydroxy-5-(hydroxymethyl)-5,8a-dimethyl-2-methylenenaphthyl)ethylidene)dihydro-4-hydroxyfuran-2(3H)-one]", "values": [{"measurement": "plaque size distribution (cumulative frequency)", "setting": "[1]; 7 month-old APPswe/PS-1 mice", "result": "shift in their distribution toward smaller plaque size"}, {"measurement": "amyloid plaques stained with Th-S", "setting": "[1]; 7 month-old APPswe/PS-1 mice, cortex and hippocampus, vs untreated", "result": "reduction of amyloid plaques stained with Th-S"}, {"measurement": "amyloid deposit levels (amyloid burden area)", "setting": "[1]; FIG. 3F mice (printed young; legend: old, 12 month-old), hippocampus or cortex", "result": "no change in amyloid deposit levels"}, {"measurement": "most immature plaques (type 1)", "setting": "[1]; [5]", "result": "increase significantly"}, {"measurement": "type 2a and 2c amyloid plaques in total brain", "setting": "[1]; [5]", "result": "no significant differences"}, {"measurement": "type 2b amyloid plaques in brain", "setting": "[1]; [5]", "result": "significantly decreased"}, {"measurement": "escape latency", "setting": "[2]", "result": "significantly lower escape latency values"}, {"measurement": "levels of β-catenin", "setting": "[3]; Wt hippocampal slices incubated with ANDRO", "result": "increase in the levels of β-catenin"}, {"measurement": "active form of GSK-3β (Tyr-216 phosphorylation)", "setting": "[3]; [6]", "result": "reduction of the active form (Tyr-216)"}, {"measurement": "inactive form of GSK-3β (Ser-9 phosphorylation)", "setting": "[3]; [6]", "result": "increase in the levels of the inactive form of GSK-3P (Ser-9)"}, {"measurement": "percentage of the granular cell layer covered by DCX staining", "setting": "[4]; [7]", "result": "significantly increased"}, {"measurement": "total number of Ki67+ cells in the SGZ", "setting": "[4]; [7]", "result": "significantly increased the total number of Ki67^+ cells"}, {"measurement": "morphology of DCX+ cells", "setting": "[4]; compared to control mice", "result": "more complex morphology"}]}
